Measurements from ChEMBL document CHEMBL1132083, “Switching androgen receptor antagonists to agonists by modifying C-ring substituents on piperidino[3,2-g]quinolinone” (Bioorg Med Chem Lett, 1999).
pEC50, pIC50, pKi: −log10 of the molar value.

Key:
Androgen receptor [1] = target: T1, Androgen receptor (Homo sapiens, UniProt P10275); details: cv-1
T1 sequence (P10275 whole entry): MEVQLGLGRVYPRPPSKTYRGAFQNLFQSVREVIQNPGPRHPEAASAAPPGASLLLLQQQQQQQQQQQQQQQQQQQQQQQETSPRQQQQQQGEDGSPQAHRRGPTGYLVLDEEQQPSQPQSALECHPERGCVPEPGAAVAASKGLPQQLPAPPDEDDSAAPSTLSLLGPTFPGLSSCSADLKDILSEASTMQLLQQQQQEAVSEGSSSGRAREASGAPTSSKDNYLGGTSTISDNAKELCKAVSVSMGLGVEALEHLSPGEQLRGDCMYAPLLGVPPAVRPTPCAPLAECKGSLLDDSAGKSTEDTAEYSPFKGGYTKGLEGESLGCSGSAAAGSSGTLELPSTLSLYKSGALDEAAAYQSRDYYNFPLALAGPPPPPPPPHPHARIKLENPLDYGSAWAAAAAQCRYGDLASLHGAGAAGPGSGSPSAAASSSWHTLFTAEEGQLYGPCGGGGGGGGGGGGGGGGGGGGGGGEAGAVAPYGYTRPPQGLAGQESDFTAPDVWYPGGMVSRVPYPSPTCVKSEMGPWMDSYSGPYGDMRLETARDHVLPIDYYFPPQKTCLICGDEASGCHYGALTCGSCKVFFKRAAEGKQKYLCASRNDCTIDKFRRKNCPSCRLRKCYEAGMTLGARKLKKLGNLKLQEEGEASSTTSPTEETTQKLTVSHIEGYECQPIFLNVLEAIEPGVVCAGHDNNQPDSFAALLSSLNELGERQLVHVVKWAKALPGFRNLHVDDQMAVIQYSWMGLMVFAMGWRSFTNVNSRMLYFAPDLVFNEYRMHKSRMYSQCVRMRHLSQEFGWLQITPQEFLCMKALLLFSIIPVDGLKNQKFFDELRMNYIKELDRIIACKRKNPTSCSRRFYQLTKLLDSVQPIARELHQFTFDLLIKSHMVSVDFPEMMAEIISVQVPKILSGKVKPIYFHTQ
Description: (§1) Agonistic activity against human androgen receptor (hAR) expressed in CV-1 cell lines

Androgen receptor [2] = target: T1, Androgen receptor
Description: (§2) Antagonistic activity against human androgen receptor (hAR) expressed in CV-1 cell lines

Androgen receptor [3] = target: T1, Androgen receptor; remark: listed apart in the source
Description: Binding affinity towards human androgen receptor (hAR), using dihydrotestosterone as radioligand for competitive binding assay

Androgen receptor [4] = target: T1, Androgen receptor; remark: listed apart in the source
Description: as §1

Androgen receptor [5] = target: T1, Androgen receptor; details: cv-1; remark: listed apart in the source
Description: as §2

Androgen receptor [6] = target: T1, Androgen receptor; test: Antagonistic activity against human androgen receptor (hAR) expressed in CV-1 cells; no data; type: functional, cell-based
[7] = target: T2, Androgen receptor (Homo sapiens) (UniProt P10275); test: Antagonistic activity against human androgen receptor (hAR); no data; type: functional
T2 sequence (whole entry): T1 sequence (P10275 whole entry)

SMILES | pEC50 (Androgen receptor [1]) | pIC50 (Androgen receptor [2]) | pKi (Androgen receptor [3]) | pEC50 (Androgen receptor [4]) | pIC50 (Androgen receptor [5]) | pIC50 (Androgen receptor [6]) | Efficacy [7] [%]
CC[C@H]1Nc2cc3[nH]c(=O)cc(C(F)(F)F)c3cc2CC1(C)C | > 5.00 | 7.38 | 7.30 | – | – | – | –
CC(C)(O)C(=O)Nc1ccc([N+](=O)[O-])c(C(F)(F)F)c1O | > 5.00 | 7.82 | 7.57 | – | – | – | –
CC[C@H]1Nc2cc3nc(O)cc(C(F)(F)F)c3cc2C[C@H]1C | – | 7.82 | 7.96 | 5.61 | – | – | –
C[C@H]1Nc2cc3nc(O)cc(C(F)(F)F)c3cc2CC1(C)C | > 5.00 | 7.62 | 7.09 | – | – | – | –
CC[C@H]1Nc2cc3nc(O)cc(C(F)(F)F)c3cc2CC1(CC)CC | > 5.00 | 7.32 | 7.38 | – | – | – | –
CC(C)[C@@H]1CCc2cc3c(C(F)(F)F)cc(=O)[nH]c3cc2N1 | > 5.00 | 7.60 | 6.96 | – | – | – | –
CC[C@@H]1Cc2cc3c(C(F)(F)F)cc(=O)[nH]c3cc2N[C@@H]1CC | – | – | 7.54 | 7.70 | > 5.00 | – | –
CC[C@@H]1C[C@H](CC)c2cc3c(C(F)(F)F)cc(O)nc3cc2N1 | – | – | 8.05 | 7.49 | – | > 5.00 | < 20
CC[C@H]1C[C@@H](C)Nc2cc3nc(O)cc(C(F)(F)F)c3cc21 | – | – | 7.64 | 7.18 | – | > 5.00 | < 20
CCC[C@@H]1CCc2cc3c(C(F)(F)F)cc(O)nc3cc2N1 | > 5.00 | 7.49 | 7.62 | – | – | – | –
CC[C@@H]1CCc2cc3c(C(F)(F)F)cc(O)nc3cc2N1 | > 5.00 | 7.96 | – | – | – | – | –
C[C@@H]1CCc2cc3c(C(F)(F)F)cc(=O)[nH]c3cc2N1 | – | 7.72 | 8.15 | 7.68 | – | – | –
C[C@@H]1C[C@H](C)c2cc3c(C(F)(F)F)cc(O)nc3cc2N1 | – | 7.82 | 8.22 | 7.23 | – | – | –
C[C@@H]1Cc2cc3c(C(F)(F)F)cc(O)nc3cc2N[C@@H]1C | – | 7.13 | 7.82 | 7.47 | – | – | –
C[C@H]1Cc2cc3c(C(F)(F)F)cc(O)nc3cc2N[C@@H]1C | > 5.00 | 7.48 | 7.66 | – | – | – | –
CC[C@H]1Cc2cc3c(C(F)(F)F)cc(O)nc3cc2N[C@@H]1C | – | – | 7.96 | 8.05 | > 5.00 | – | –
CC[C@H]1Nc2cc3[nH]c(=O)cc(C(F)(F)F)c3cc2C[C@@H]1C | – | 7.96 | 7.92 | 5.78 | – | – | –
CC[C@H]1Cc2cc3c(C(F)(F)F)cc(=O)[nH]c3cc2N[C@@H]1CC | – | – | 7.80 | 8.52 | > 5.00 | – | –
CC[C@@H]1Cc2cc3c(C(F)(F)F)cc(=O)[nH]c3cc2N[C@@H]1C | – | – | 7.82 | 8.00 | > 5.00 | – | –
CC[C@@H]1C[C@H](C)c2cc3c(C(F)(F)F)cc(O)nc3cc2N1 | – | 6.86 | 7.68 | 6.92 | – | – | –
